These results are taken from patent publication US8536202B2, “Triazole-substituted anthranilamides as pesticides” (Bayer Cropscience AG, priority 2010, dated 2013).

Where two headings read alike, the source gives them in different places.

Data set [1] deals with larvae of the mustard beetle (Phaedon cochleariae). Nature of the data set: Phaedon test (PHAECO spray treatment). It counts as in vivo. Conditions: 168 h, 100 g/ha, after 7 days, read-out: activity in %. As for the experimental part: Solvents: 78.0 parts by weight of acetone • • 1.5 parts by weight of dimethylformamide
Emulsifier: 0.5 part by weight of alkylaryl polyglycol ether
An appropriate preparation of active compound is prepared by mixing 1 part by weight of active compound with the stated amounts of solvent and emulsifier and diluting the concentrate with emulsifier-containing water to the desired concentration.
After 7 days, the activity in % is ascertained. Here, 100% means that all of the beetle larvae have been killed; 0% means that no beetle larvae have been killed.

The test system of data set [2] is caterpillars of the armyworm (Spodoptera frugiperda). Description: Spodoptera frugiperda test (SPODFR spray treatment). It counts as in vivo. Conditions: 168 h, 100 g/ha, after 7 days, read-out: activity in %. The essentials:
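Percent caterpillar mortality read 7 days after infestation (0% none killed, 100% all killed). Treatment was a spray of the acetone/DMF/emulsifier formulation, water-diluted to test concentration, onto Zea mays leaf discs, allowed to dry before larvae were added.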

The nature of data set [3]: log P determination by HPLC on reversed-phase columns (EEC Directive 79/831 Annex V.A8). Format: physicochemical. Conditions: pH 2.7. The essentials: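 Calibration used unbranched alkan-2-ones of 3 to 16 carbons with known log P, values interpolated linearly from retention times between neighbouring standards. Acidic-range LC-MS run at pH 2.7, eluents aqueous and acetonitrile formic acid 0.1%, linear gradient 10% to 95% acetonitrile.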

[4] abbreviates: reversed-phase C18 HPLC column, HPLC on reversed-phase columns (C 18), EEC Directive 79/831 Annex V.A8, read-out: logP.

`Cc1cc(C#N)cc(C(=O)NC(C)(C)C)c1NC(=O)c1cc(Cn2nnc3c(Br)cc(OC(F)(F)F)cc32)nn1-c1ncccc1Cl` [Example 111]: the pest or weed control at 100 g/ha in data set [1] and in data set [2] was 100% in each case. Also, the chromatographic logP in data set [3] (setting [4]) was 4.09.
Consider `Cc1cc(C#N)cc(C(=O)NC(C)(C)C)c1NC(=O)c1cc(Cn2nc3cc(OC(F)(F)F)cc(Br)c3n2)nn1-c1ncccc1Cl` [Example 112], for which the pest or weed control at 100 g/ha in data set [1] and in data set [2] was 100% in each case. Further, the chromatographic logP in data set [3] (setting [4]) worked out at 4.59.
`Cc1cc(C#N)cc(C(=O)NC(C)(C)C)c1NC(=O)c1cc(Cn2nnc3cc(C(F)(F)F)ccc32)nn1-c1ncccc1Cl` [Example 113]: the pest or weed control at 100 g/ha in data set [1] and in data set [2] was 100% in each case. In addition, in data set [3], the chromatographic logP stood at 3.5.
For the compound `Cc1cc(C#N)cc(C(=O)NC(C)(C)C)c1NC(=O)c1cc(Cn2nc3ccc(C(F)(F)F)cc3n2)nn1-c1ncccc1Cl` [Example 114], the pest or weed control at 100 g/ha in data set [1] and in data set [2] was 100% throughout. In data set [3], this compound had a chromatographic logP of 3.94.
In the case of `Cc1cc(Cl)cc(C(=O)NC(C)C2CC2)c1NC(=O)c1cc(Cn2ccnn2)nn1-c1ncccc1Cl` (stereo not drawn) [Example 117], the pest or weed control at 100 g/ha in data set [1] and in data set [2] was 100% each time. In data set [3], the chromatographic logP amounted to 2.41.
For `CNC(=O)c1cc(Cl)cc(C)c1NC(=O)c1cc(Cn2nccn2)nn1-c1ncccc1Cl` [Example 118], the pest or weed control at 100 g/ha in data set [1] and in data set [2] was 100% each time. Moreover, the chromatographic logP in data set [3] amounted to 2.03.
As for `Cc1cc(Cl)cc(C(=O)NC(C)C)c1NC(=O)c1cc(Cn2nccn2)nn1-c1ncccc1Cl` [Example 119], the pest or weed control at 100 g/ha in data set [1] and in data set [2] was 100% throughout. In addition, the chromatographic logP in data set [3] was determined as 2.5.
In the case of `Cc1cc(Cl)cc(C(=O)NC(C)C2CC2)c1NC(=O)c1cc(Cn2nccn2)nn1-c1ncccc1Cl` (stereo not drawn) [Example 122], the pest or weed control at 100 g/ha in data set [1] and in data set [2] was 100% in each case. The compound also yielded a chromatographic logP in data set [3] of 2.81.
For the compound `CCNC(=O)c1cc(Cl)cc(C)c1NC(=O)c1cc(Cn2ncc(C(F)(F)F)n2)nn1-c1ncccc1Cl` [Example 138], the pest or weed control at 100 g/ha in data set [1] and in data set [2] was 100% in each case. The same compound showed a chromatographic logP in data set [3] of 3.26.
`Cc1cc(Cl)cc(C(=O)NC(C)(C)C)c1NC(=O)c1cc(Cn2ncc(C(F)(F)F)n2)nn1-c1ncccc1Cl` [Example 140]: the pest or weed control at 100 g/ha in data set [1] and in data set [2] was 100% throughout. This compound also showed a chromatographic logP in data set [3] of 3.85.
Turning to `Cc1cc(Cl)cc(C(=O)NCC2CC2)c1NC(=O)c1cc(Cn2ncc(C(F)(F)F)n2)nn1-c1ncccc1Cl` [Example 141], the pest or weed control at 100 g/ha in data set [1] and in data set [2] was 100% in each case. In data set [3], the chromatographic logP was determined as 3.55.
As for `Cc1cc(Cl)cc(C(=O)NC2CCC2)c1NC(=O)c1cc(Cn2ncc(C(F)(F)F)n2)nn1-c1ncccc1Cl` [Example 142], the pest or weed control at 100 g/ha in data set [1] and in data set [2] was 100% each time. The chromatographic logP in data set [3] turned out to be 3.64.
For the compound `NC(=O)c1cc(Cl)cc(Cl)c1NC(=O)c1cc(Cn2ncc(C(F)(F)F)n2)nn1-c1ncccc1Cl` [Example 145], the pest or weed control at 100 g/ha in data set [1] and in data set [2] was 100% in each case. This compound displayed a chromatographic logP in data set [3] of 2.69.
With `O=C(NC1CC1)c1cc(Cl)cc(Cl)c1NC(=O)c1cc(Cn2ncc(C(F)(F)F)n2)nn1-c1ncccc1Cl` [Example 148], the pest or weed control at 100 g/ha in data set [1] and in data set [2] was 100% throughout. Besides, the chromatographic logP in data set [3] came to 3.18.
With `CCNC(=O)c1cc(Cl)cc(Cl)c1NC(=O)c1cc(Cn2ncc(C(F)(F)F)n2)nn1-c1ncccc1Cl` [Example 149], the pest or weed control at 100 g/ha in data set [1] and in data set [2] was 100% throughout. Moreover, the chromatographic logP in data set [3] stood at 3.2.
Regarding `O=C(NCC1CC1)c1cc(Cl)cc(Cl)c1NC(=O)c1cc(Cn2ncc(C(F)(F)F)n2)nn1-c1ncccc1Cl` [Example 152], the pest or weed control at 100 g/ha in data set [1] and in data set [2] was 100% in each case. In addition, in data set [3], the chromatographic logP came to 3.48.
Turning to `O=C(NC1CCC1)c1cc(Cl)cc(Cl)c1NC(=O)c1cc(Cn2ncc(C(F)(F)F)n2)nn1-c1ncccc1Cl` [Example 153], the pest or weed control at 100 g/ha in data set [1] and in data set [2] was 100% throughout. For the same compound, the chromatographic logP in data set [3] was 3.56.
In the case of `N#CCNC(=O)c1cc(Cl)cc(Cl)c1NC(=O)c1cc(Cn2ncc(C(F)(F)F)n2)nn1-c1ncccc1Cl` [Example 154], the pest or weed control at 100 g/ha in data set [1] and in data set [2] was 100% in each case. The chromatographic logP in data set [3] was 2.9.
For the compound `Cc1cc(I)cc(C(=O)NC(C)C2CC2)c1NC(=O)c1cc(Cn2ncc(C(F)(F)F)n2)nn1-c1ncccc1Cl` (stereo not drawn) [Example 158], the pest or weed control at 100 g/ha in data set [1] and in data set [2] was 100% throughout. In data set [3], this compound showed a chromatographic logP of 4.05.
As to `Cc1cc(I)cc(C(=O)NC2CC2)c1NC(=O)c1cc(Cn2ncc(C(F)(F)F)n2)nn1-c1ncccc1Cl` [Example 159], the pest or weed control at 100 g/ha in data set [1] and in data set [2] was 100% in each case. In data set [3], this compound showed a chromatographic logP of 3.45.
As to `CCNC(=O)c1cc(I)cc(C)c1NC(=O)c1cc(Cn2ncc(C(F)(F)F)n2)nn1-c1ncccc1Cl` [Example 160], the pest or weed control at 100 g/ha in data set [1] and in data set [2] was 100% in each case. In data set [3], the chromatographic logP stood at 3.5.
For the compound `Cc1cc(I)cc(C(=O)NC(C)C)c1NC(=O)c1cc(Cn2ncc(C(F)(F)F)n2)nn1-c1ncccc1Cl` [Example 161], the pest or weed control at 100 g/ha in data set [1] and in data set [2] was 100% throughout. Moreover, in data set [3], the chromatographic logP turned out to be 3.73.
With `Cc1cc(I)cc(C(=O)NCC2CC2)c1NC(=O)c1cc(Cn2ncc(C(F)(F)F)n2)nn1-c1ncccc1Cl` [Example 163], the pest or weed control at 100 g/ha in data set [1] and in data set [2] was 100% throughout. In data set [3], this compound registered a chromatographic logP of 3.8.
In the case of `CNC(=O)c1cc(F)cc(C)c1NC(=O)c1cc(Cn2ncc(C(F)(F)F)n2)nn1-c1ncccc1Cl` [Example 167], the pest or weed control at 100 g/ha in data set [1] and in data set [2] was 100% throughout. In data set [3], this compound displayed a chromatographic logP of 2.63.
For the compound `Cc1cc(F)cc(C(=O)NC(C)C2CC2)c1NC(=O)c1cc(Cn2ncc(C(F)(F)F)n2)nn1-c1ncccc1Cl` (stereo not drawn) [Example 168], the pest or weed control at 100 g/ha in data set [1] and in data set [2] was 100% each time. The same compound registered a chromatographic logP in data set [3] of 3.36.
On to `Cc1cc(F)cc(C(=O)NC2CC2)c1NC(=O)c1cc(Cn2ncc(C(F)(F)F)n2)nn1-c1ncccc1Cl` [Example 169], for which the pest or weed control at 100 g/ha in data set [1] and in data set [2] was 100% throughout. This compound also came in with a chromatographic logP in data set [3] of 2.86.
Consider `Cc1cc(Br)cc(C(=O)NC(C)(C)C)c1NC(=O)c1cc(Cn2ncc(C(F)(F)F)n2)nn1-c1ncccc1Cl` [Example 176], for which the pest or weed control at 100 g/ha in data set [1] and in data set [2] was 100% in each case. For the same compound, the chromatographic logP in data set [3] is 4.65.
For the compound `CSC[C@H](C)NC(=O)c1cc(C#N)cc(C)c1NC(=O)c1cc(Cn2cc(C(F)(F)F)nn2)nn1-c1ncccc1Cl` [Example 183], the pest or weed control at 100 g/ha in data set [1] and in data set [2] was 100% throughout. The chromatographic logP in data set [3] was 2.95.
For the compound `Cc1cc(Cl)cc(C(=O)NC(C)C)c1NC(=O)c1cc(Cn2cc(C(F)(F)F)nn2)nn1-c1ncccc1Cl` [Example 190], the pest or weed control at 100 g/ha in data set [1] and in data set [2] was 100% throughout. The same compound had a chromatographic logP in data set [3] of 3.06.
On to `Cc1cc(Cl)cc(C(=O)NCC2CC2)c1NC(=O)c1cc(Cn2cc(C(F)(F)F)nn2)nn1-c1ncccc1Cl` [Example 195], for which the pest or weed control at 100 g/ha in data set [1] and in data set [2] was 100% each time. The chromatographic logP in data set [3] is 3.22.
As to `CC(NC(=O)c1cc(Cl)cc(Cl)c1NC(=O)c1cc(Cn2cc(C(F)(F)F)nn2)nn1-c1ncccc1Cl)C1CC1` (stereo not drawn) [Example 198], the pest or weed control at 100 g/ha in data set [1] and in data set [2] was 100% throughout. In data set [3], this compound showed a chromatographic logP of 3.38.
As to `CSC[C@H](C)NC(=O)c1cc(Cl)cc(Cl)c1NC(=O)c1cc(Cn2cc(C(F)(F)F)nn2)nn1-c1ncccc1Cl` [Example 202], the pest or weed control at 100 g/ha in data set [1] and in data set [2] was 100% in each case. This compound also showed a chromatographic logP in data set [3] of 3.28.
Turning to `O=C(NCC1CC1)c1cc(Cl)cc(Cl)c1NC(=O)c1cc(Cn2cc(C(F)(F)F)nn2)nn1-c1ncccc1Cl` [Example 204], the pest or weed control at 100 g/ha in data set [1] and in data set [2] was 100% in each case. Moreover, the chromatographic logP in data set [3] was determined as 3.14.
On to `N#CCNC(=O)c1cc(Cl)cc(Cl)c1NC(=O)c1cc(Cn2cc(C(F)(F)F)nn2)nn1-c1ncccc1Cl` [Example 205], for which the pest or weed control at 100 g/ha in data set [1] and in data set [2] was 100% throughout. In addition, the chromatographic logP in data set [3] came out at 2.63.
